Here are results for four compounds from patent publication US5538975A, “1,3-oxathiolane nucleoside compounds and compositions” (BioChem Pharma, Inc., priority 1991, dated 1996).

One series can be described thus: in vitro. To be noted: human. Here is the method:
The cytotoxicities of the compounds of Example 1 and the racemic compound (Intermediate 1) were determined in two CD4 cell lines: H9 and CEM.
Compounds for test were serially diluted from 100 μg/ml to 0.3 μg/ml (final concentrations) in 96 well microtitre plates. 3.6×10^4 cells were inoculated into each well of the plates including drug-free controls. After incubation at 37° C. for 5 days, the viable cell count was determined by removing a sample of cell suspension and counting trypan blue excluding cells in a hemocytometer.

The test system of series [1] is HIV-1 strain RF. As to the kind of experiment: microbe, parasite or virus in culture. To be noted: Human immunodeficiency virus 1, MT4, in Homo sapiens, read-out: 50% Antiviral Activity, Formazan. The procedure: Antiviral activity of the compound of Example 1 was determined against HIV-1 in the following cell lines.
MT-4 cells, a human T-cell leukaemia cell line, infected with HIV-1 strain RF.
Antiviral activity in C8166 cells was determined by inhibition of syncytium formation (Tochikura et al Virology, 164, 542-546) and in MT-4 cells by inhibition of formazan conversion [Baba et al, Biochem Biophys Res Commun., 142, pp. 128-134 (1987); Mossman, J. Immun. Meth., 65, pp. 55-57 (1983)]. Antiviral activities were also determined by analyzing the amount of HIV p24 antigen synthesized in the presence and absence of enantiomers.

In series [2] the test system is HIV p24 antigen (HIV-1 RF). As to the kind of experiment: Inhibition of HIV p24 antigen synthesis in C8166 cells. Format: cell-based, HIV-1; C8166 human T-lymphoblastoid cell line.
Series [3] deals with HIV-1 strain RF. As to the kind of experiment: Antiviral activity, inhibition of syncytium formation in C8166 cells. In kind it is cell-based, HIV-1; C8166 human T-lymphoblastoid cell line.
The next series deals with CD4 cell lines. As to the kind of experiment: Cytotoxicity of the enantiomers (general statement). Particulars: in words. In kind it is cell-based.

Converted amounts (≈) assume the structure as drawn. Read-outs that look alike come from different tables or passages of the source.

Consider `Nc1nc(=O)n([C@@H]2CS[C@H](CO)O2)cc1F` (relative stereo) [Intermediate 1, (±)-Cis-2-hydroxymethyl-5-(5'-fluorocytosin-1'-yl)1,3-oxathiolane], for which the cytotoxic concentration (CC50) at 120 h in “in vitro” (cem cells) is 173 µg/mL (≈ 700 µM); in the series “in vitro” (h9 cells), 232 µg/mL (≈ 938 µM). For the same compound, in the series on HIV-1 strain RF [1], the IC50 amounted to 0.065 µg/mL (≈ 0.263 µM).

Turning to `Nc1nc(=O)n([C@H]2CS[C@@H](CO)O2)cc1F` [(+)-enantiomer, (+)-cis-2-hydroxymethyl-5-(5'-fluorocytosin-1'-yl) -1,3-oxathiolane], the IC50 in series [2] (Human immunodeficiency virus 1, C8166 cells, virus RF, read-out: 50% Inhibition HIV p24 Synthesis) was 0.1 µg/mL (≈ 0.404 µM); in the series on HIV-1 strain RF [1] it was more than 1 µg/mL; with HIV-1 strain RF [3] (Human immunodeficiency virus 1, C8166 cells, HIV-1 RF, read-out: 50% Antiviral Activity, Inhibition of syncytium formation) it was 0.04 µg/mL (≈ 0.162 µM). The results for the CC50 at 120 h in the series “in vitro” (cem cells) and in the series “in vitro” (h9 cells) were 217 µg/mL (≈ 878 µM) and 334 µg/mL (≈ 1350 µM), respectively. Moreover, the cytotoxicity entry in the series with CD4 cell lines is on record as “unexpectedly low cytotoxicity”.

`Nc1nc(=O)n([C@@H]2CS[C@H](CO)O2)cc1F` [(-)-enantiomer, (-)-4-amino-5-fluoro-1-(2-hydroxymethyl-1,3-oxathiolan-5-yl)-(1H)-pyrimidin-2-one]: the values for the CC50 at 120 h in the series “in vitro” (cem cells) and in “in vitro” (h9 cells) were 148 µg/mL (≈ 599 µM) and 296 µg/mL (≈ 1200 µM), respectively. Also, the “activity relative to the (+)-enantiomer” value in the series on HIV is reported as “much more active than the (+)-enantiomer”. In the series on HIV-1 strain RF [1], the IC50 came out at 0.14 µg/mL (≈ 0.566 µM). Besides, the cytotoxicity result in the series with CD4 cell lines is listed as “unexpectedly low cytotoxicity”.

For the compound `Cc1cn([C@H]2C[C@H](N=[N+]=[N-])[C@@H](CO)O2)c(=O)[nH]c1=O` [AZT, 3'-azido-3'-deoxythymidine, reference compound], the IC50 in series [2] (Human immunodeficiency virus 1, C8166, read-out: 50% Inhibition HIV p24 Synthesis) was found to be 0.017 µg/mL (≈ 0.0636 µM); in the series on HIV-1 strain RF [3] (Human immunodeficiency virus 1, C8166, read-out: 50% Antiviral Activity, Inhibition of syncytium formation), 0.0038 µg/mL (≈ 0.0142 µM).
